Measured values reported in PubChem BioAssay AID1919006 (Molecular Pharmacology Branch, DTP, NCI, 2023).
“And” between values parts separate entries of the source, which are not always exact repeats. Equal values may be shown once.

System: 885512-296-R-J2-PDC complex spheroid growth, % test/control
Experiment: Anticancer human tumor 885512-296-R-J2-PDC patient-derived breast carcinoma cell line growth inhibition [AhR]
Settings: for IC50: curve of first compound; for viability, T/C: stronger effect = lower value
Procedure, shortened: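 Agents were dosed in half-log steps down from roughly clinical Cmax, or from 10 microM where Cmax was unknown, alone and with AhR antagonists. Read-out: percent test/control growth of tumor spheroids containing HUVEC and MSC stromal cells.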

[1] = second compound 0.1 µM, first compound 0.0316 µM
[2] = second compound 0.1 µM, first compound 0.1 µM
[3] = second compound 0.1 µM, first compound 0.316 µM
[4] = second compound 0.1 µM, first compound 1 µM
[5] = second compound 0.1 µM, first compound 3.16 µM
[6] = second compound 0.1 µM, first compound 10 µM
[7] = second compound 0.316 µM, first compound 0.0316 µM
[8] = second compound 0.316 µM, first compound 0.1 µM
[9] = second compound 0.316 µM, first compound 0.316 µM
[10] = second compound 0.316 µM, first compound 1 µM
[11] = second compound 0.316 µM, first compound 3.16 µM
[12] = second compound 0.316 µM, first compound 10 µM
[13] = second compound 1 µM, first compound 0.0316 µM
[14] = second compound 1 µM, first compound 0.1 µM
[15] = second compound 1 µM, first compound 0.316 µM
[16] = second compound 1 µM, first compound 1 µM
[17] = second compound 1 µM, first compound 3.16 µM
[18] = second compound 1 µM, first compound 10 µM
[19] = second compound 3.16 µM, first compound 0.0316 µM
[20] = second compound 3.16 µM, first compound 0.1 µM
[21] = second compound 3.16 µM, first compound 0.316 µM
[22] = second compound 3.16 µM, first compound 1 µM
[23] = second compound 3.16 µM, first compound 3.16 µM
[24] = second compound 3.16 µM, first compound 10 µM
[25] = second compound 10 µM, first compound 0.0316 µM
[26] = second compound 10 µM, first compound 0.1 µM
[27] = second compound 10 µM, first compound 0.316 µM
[28] = second compound 10 µM, first compound 1 µM
[29] = second compound 10 µM, first compound 3.16 µM
[30] = second compound 10 µM, first compound 10 µM
[31] = second compound 0.1 µM, first compound 0.000316 µM
[32] = second compound 0.1 µM, first compound 0.001 µM
[33] = second compound 0.1 µM, first compound 0.00316 µM
[34] = second compound 0.1 µM, first compound 0.01 µM
[35] = second compound 0.316 µM, first compound 0.000316 µM
[36] = second compound 0.316 µM, first compound 0.001 µM
[37] = second compound 0.316 µM, first compound 0.00316 µM
[38] = second compound 0.316 µM, first compound 0.01 µM
[39] = second compound 1 µM, first compound 0.000316 µM
[40] = second compound 1 µM, first compound 0.001 µM
[41] = second compound 1 µM, first compound 0.00316 µM
[42] = second compound 1 µM, first compound 0.01 µM
[43] = second compound 3.16 µM, first compound 0.000316 µM
[44] = second compound 3.16 µM, first compound 0.001 µM
[45] = second compound 3.16 µM, first compound 0.00316 µM
[46] = second compound 3.16 µM, first compound 0.01 µM
[47] = second compound 10 µM, first compound 0.000316 µM
[48] = second compound 10 µM, first compound 0.001 µM
[49] = second compound 10 µM, first compound 0.00316 µM
[50] = second compound 10 µM, first compound 0.01 µM
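Also: spheroids exposed to compounds for seven days.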

## COc1cc(Nc2ncc3c(n2)-c2ccc(Cl)cc2C(c2c(F)cccc2OC)=NC3)ccc1C(=O)O + CC(CO)NC(=O)c1cc(-c2ccc(Cl)cc2)nn(-c2cnn(C)c2)c1=O
Second compound 0.1 µM
  IC50: 2440 nM
Second compound 0.316 µM
  IC50: 234 nM
Second compound 1 µM
  IC50: 456 nM
Second compound 3.16 µM
  IC50: 1350 nM
Second compound 10 µM
  IC50: > 10000 nM
[1]
  viability, T/C: 53%
[2]
  viability, T/C: 48.3%
[3]
  viability, T/C: 51.4%
[4]
  viability, T/C: 57.6%
[5]
  viability, T/C: 46.4%
[6]
  viability, T/C: 48.3%
[7]
  viability, T/C: 54.9%
[8]
  viability, T/C: 45.5%
[9]
  viability, T/C: 55%
[10]
  viability, T/C: 43.3%
[11]
  viability, T/C: 45%
[12]
  viability, T/C: 37%
[13]
  viability, T/C: 57.6%
[14]
  viability, T/C: 51.2%
[15]
  viability, T/C: 55.7%
[16]
  viability, T/C: 46.7%
[17]
  viability, T/C: 43%
[18]
  viability, T/C: 50.2%
[19]
  viability, T/C: 59.6%
[20]
  viability, T/C: 55.5%
[21]
  viability, T/C: 51.2%
[22]
  viability, T/C: 55.5%
[23]
  viability, T/C: 44.6%
[24]
  viability, T/C: 46.2%
[25]
  viability, T/C: 48.5%
[26]
  viability, T/C: 59.5%
[27]
  viability, T/C: 58.4%
[28]
  viability, T/C: 62.3%
[29]
  viability, T/C: 56.2%
[30]
  viability, T/C: 50.5%

## CC[C@@]1(O)C(=O)OCc2c1cc1n(c2=O)Cc2cc3c(CN(C)C)c(O)ccc3nc2-1 + CC(CO)NC(=O)c1cc(-c2ccc(Cl)cc2)nn(-c2cnn(C)c2)c1=O
Second compound 0.1 µM
  IC50: 11.4 nM
Second compound 0.316 µM
  IC50: 11.7 nM
Second compound 1 µM
  IC50: 10.7 nM
Second compound 3.16 µM
  IC50: 7.84 nM
Second compound 10 µM
  IC50: 8.12 nM
[31]
  viability, T/C: 104%
[32]
  viability, T/C: 107%
[33]
  viability, T/C: 87.9%
[34]
  viability, T/C: 58.3%
[1]
  viability, T/C: 8.77%
[2]
  viability, T/C: 4.56%
[35]
  viability, T/C: 92.6%
[36]
  viability, T/C: 94.5%
[37]
  viability, T/C: 87.9%
[38]
  viability, T/C: 57%
[7]
  viability, T/C: 7.83%
[8]
  viability, T/C: 5.61%
[39]
  viability, T/C: 110%
[40]
  viability, T/C: 107%
[41]
  viability, T/C: 92.8%
[42]
  viability, T/C: 54.5%
[13]
  viability, T/C: 10%
[14]
  viability, T/C: 6.33%
[43]
  viability, T/C: 117%
[44]
  viability, T/C: 106%
[45]
  viability, T/C: 81.4%
[46]
  viability, T/C: 43%
[19]
  viability, T/C: 10.9%
[20]
  viability, T/C: 4.27%
[47]
  viability, T/C: 89.4%
[48]
  viability, T/C: 93%
[49]
  viability, T/C: 75.1%
[50]
  viability, T/C: 46.2%
[25]
  viability, T/C: 10%
[26]
  viability, T/C: 7.97%

## O=C(C=Cn1cnc(-c2cc(C(F)(F)F)cc(C(F)(F)F)c2)n1)NNc1cnccn1 + Cc1cncc(-c2nc(NCCc3c[nH]c4ccccc34)c3ncn(C(C)C)c3n2)c1
Second compound 0.1 µM
  IC50: 60.6 nM
Second compound 0.316 µM
  IC50: 69.2 nM
Second compound 1 µM
  IC50: 65.8 nM
Second compound 3.16 µM
  IC50: 42.5 nM
Second compound 10 µM
  IC50: < 9.49 nM
Second compound 0.1 µM, first compound 0.00949 µM
  viability, T/C: 93.3%
Second compound 0.1 µM, first compound 0.03 µM
  viability, T/C: 99.9%
Second compound 0.1 µM, first compound 0.0949 µM
  viability, T/C: 20.3%
Second compound 0.1 µM, first compound 0.3 µM
  viability, T/C: 4.2%
Second compound 0.1 µM, first compound 0.949 µM
  viability, T/C: 2.2%
Second compound 0.1 µM, first compound 3 µM
  viability, T/C: 1.61%
Second compound 0.316 µM, first compound 0.00949 µM
  viability, T/C: 97.4%
Second compound 0.316 µM, first compound 0.03 µM
  viability, T/C: 93%
Second compound 0.316 µM, first compound 0.0949 µM
  viability, T/C: 33.8%
Second compound 0.316 µM, first compound 0.3 µM
  viability, T/C: 5.36%
Second compound 0.316 µM, first compound 0.949 µM
  viability, T/C: 2.35%
Second compound 0.316 µM, first compound 3 µM
  viability, T/C: 1.45%
Second compound 1 µM, first compound 0.00949 µM
  viability, T/C: 98.2%
Second compound 1 µM, first compound 0.03 µM
  viability, T/C: 89.4%
Second compound 1 µM, first compound 0.0949 µM
  viability, T/C: 31.6%
Second compound 1 µM, first compound 0.3 µM
  viability, T/C: 4.92%
Second compound 1 µM, first compound 0.949 µM
  viability, T/C: 2.78%
Second compound 1 µM, first compound 3 µM
  viability, T/C: 1.53%
Second compound 3.16 µM, first compound 0.00949 µM
  viability, T/C: 64.6%
Second compound 3.16 µM, first compound 0.03 µM
  viability, T/C: 66.2%
Second compound 3.16 µM, first compound 0.0949 µM
  viability, T/C: 14.8%
Second compound 3.16 µM, first compound 0.3 µM
  viability, T/C: 5.25%
Second compound 3.16 µM, first compound 0.949 µM
  viability, T/C: 2.77%
Second compound 3.16 µM, first compound 3 µM
  viability, T/C: 1.58%
Second compound 10 µM, first compound 0.00949 µM
  viability, T/C: 19.2%
Second compound 10 µM, first compound 0.03 µM
  viability, T/C: 16.8%
Second compound 10 µM, first compound 0.0949 µM
  viability, T/C: 8.05%
Second compound 10 µM, first compound 0.3 µM
  viability, T/C: 4.48%
Second compound 10 µM, first compound 0.949 µM
  viability, T/C: 3.45%
Second compound 10 µM, first compound 3 µM
  viability, T/C: 2.01%

## COc1cc(Nc2ncc3c(n2)-c2ccc(Cl)cc2C(c2c(F)cccc2OC)=NC3)ccc1C(=O)O
Compound 0.0316 µM
  viability, T/C: 53.5% and 54% and 51.9%
Compound 0.1 µM
  viability, T/C: 43.2% and 52% and 43.9%
Compound 0.316 µM
  viability, T/C: 48.8% and 56.9% and 53%
Compound 1 µM
  viability, T/C: 42.7% and 45% and 41.8%
Compound 3.16 µM
  viability, T/C: 38.3% and 53.3% and 41.6%
Compound 10 µM
  viability, T/C: 37% (2×) and 39.3%

## Cn1ncnc1C1c2n[nH]c(=O)c3cc(F)cc(c23)NC1c1ccc(F)cc1 (stereo unspecified) + CC(CO)NC(=O)c1cc(-c2ccc(Cl)cc2)nn(-c2cnn(C)c2)c1=O
Second compound 0.1 µM
  IC50: > 100 nM
Second compound 0.316 µM
  IC50: > 100 nM
Second compound 1 µM
  IC50: > 100 nM
Second compound 3.16 µM
  IC50: > 100 nM
Second compound 10 µM
  IC50: > 100 nM
[31]
  viability, T/C: 107%
[32]
  viability, T/C: 108%
[33]
  viability, T/C: 103%
[34]
  viability, T/C: 96.6%
[1]
  viability, T/C: 87.1%
[2]
  viability, T/C: 69.1%
[35]
  viability, T/C: 102%
[36]
  viability, T/C: 96.9%
[37]
  viability, T/C: 98.5%
[38]
  viability, T/C: 107%
[7]
  viability, T/C: 73%
[8]
  viability, T/C: 63.9%
[39]
  viability, T/C: 104%
[40]
  viability, T/C: 96.4%
[41]
  viability, T/C: 101%
[42]
  viability, T/C: 89.3%
[13]
  viability, T/C: 79.1%
[14]
  viability, T/C: 64.7%
[43]
  viability, T/C: 90.1%
[44]
  viability, T/C: 101%
[45]
  viability, T/C: 107%
[46]
  viability, T/C: 82.9%
[19]
  viability, T/C: 84.9%
[20]
  viability, T/C: 64.6%
[47]
  viability, T/C: 96.7%
[48]
  viability, T/C: 97.9%
[49]
  viability, T/C: 88.9%
[50]
  viability, T/C: 79.2%
[25]
  viability, T/C: 67.1%
[26]
  viability, T/C: 51.1%

## O=C(C=Cc1cccc(S(=O)(=O)Nc2ccccc2)c1)NO + Cc1ccccc1N=Nc1ccc(NC(=O)c2ccnn2C)c(C)c1
Second compound 0.1 µM
  IC50: 871 nM
Second compound 0.316 µM
  IC50: 1160 nM
Second compound 1 µM
  IC50: 1090 nM
Second compound 3.16 µM
  IC50: 773 nM
Second compound 10 µM
  IC50: 33.8 nM
[1]
  viability, T/C: 84.5%
[2]
  viability, T/C: 82.9%
[3]
  viability, T/C: 67.6%
[4]
  viability, T/C: 45%
[5]
  viability, T/C: 27.8%
[6]
  viability, T/C: 7.04%
[7]
  viability, T/C: 86.4%
[8]
  viability, T/C: 85.8%
[9]
  viability, T/C: 80.8%
[10]
  viability, T/C: 47.8%
[11]
  viability, T/C: 30.6%
[12]
  viability, T/C: 7.44%
[13]
  viability, T/C: 88.2%
[14]
  viability, T/C: 85.5%
[15]
  viability, T/C: 68.9%
[16]
  viability, T/C: 51.4%
[17]
  viability, T/C: 29.8%
[18]
  viability, T/C: 7.53%
[19]
  viability, T/C: 73.8%
[20]
  viability, T/C: 73%
[21]
  viability, T/C: 67.5%
[22]
  viability, T/C: 40.6%
[23]
  viability, T/C: 28.2%
[24]
  viability, T/C: 6.85%
[25]
  viability, T/C: 51%
[26]
  viability, T/C: 46.8%
[27]
  viability, T/C: 41.9%
[28]
  viability, T/C: 32.5%
[29]
  viability, T/C: 27.6%
[30]
  viability, T/C: 7.31%
